How the values were obtained:
Salmonella enteritidis = assay: Minimum growth inhibiting concentration, agar plate method; format: cell-based; details: for Minimum growth inhibiting concentration: strain resistant to the respective drug
Method: (§1) The drug-resistant strains of bacterial species were obtained in the manner described below according to the concentration gradient plate culture (see "Chemotherapeutics and Resistant Bacteria", 1970, By Chikara Watanabe, Asakura Shoten).
(§2) The agar plates with drug concentration gradient ranging from 10 to 100 μg/ml were prepared, and each strain of the bacterial species to be tested was streaked or smeared. These plates were kept at 37° C. for several days and the colony formed in the high concentration area was isolated and again similarly inoculated to the plates. Such operation was repeated several times to obtain the bacterial strains resistant to the respective drugs.
(§3) The drug sensitivity of the drug-resistant strains and that of the original strains (sensitive strains) were compared by way of the minimum growth inhibiting concentration (hereinafter abbreviated as MIC) according to the Standard Method of the Japanese Chemotherapeutical Association (see "Chemotherapy" Vol. 22, No. 6, 1126 (1974), by MIC Determination Method Reform Committee). More specifically, double diluted systems of each drug were prepared and they were mixed with the heart-infusion agar medium (Nippon Eiyo Kagaku Co., Ltd.) to form the agar plates. Then a loopful of each strain, which had been cultured at 37° C. in Trypto-soy bouillon (Nippon Eiyo Kagaku Co., Ltd.) for 18 hr. was smeared on each the plate, and after culturing for 18 hr. at 37° C., the growth of the strain on each plate was examined.
(§4) MIC has apparently been reduced to half the level or less before addition of the present substance as will be seen in Table 3 of EXAMPLE 1. The amount of the present substance added is more than 10 μg/ml, preferably more than 100 μg/ml. The pH of the medium was maintained at 7.2±0.1 so that MIC would not be affected by pH of the medium.
(§5) Specimens of the drug-resistant bacterial strain were obtained according to the aforementioned concentration-gradient plate culture by using Staphylococcus aureus, Streptococcus faecalis, Escherichia coli, Salmonella enteritidis, Klebsiella pneumoniae and Pseudomonas aeruginosa. The MICs of the original bacterial strains and those of the bacterial strains which have developed resistance to the respective antibiotics are summarized in Table 2.

Escherichia coli = assay: as above; format: cell-based; details: for Minimum growth inhibiting concentration: strain resistant to the respective drug
Method: as §1, §2, §3, §4, §5

Staphylococcus aureus = assay: as above; format: cell-based; details: for Minimum growth inhibiting concentration: strain resistant to the respective drug
Method: as §1, §2, §3
(§6) The amount of the present substance added is more than 10 μg/ml, preferably more than 100 μg/ml. The pH of the medium was maintained at 7.2±0.1 so that MIC would not be affected by pH of the medium.
(§7) Specimens of the drug-resistant bacterial strain were obtained according to the aforementioned concentration-gradient plate culture by using Staphylococcus aureus, Streptococcus faecalis, Escherichia coli, Salmonella enteritidis, Klebsiella pneumoniae and Pseudomonas aeruginosa.

Klebsiella pneumoniae = assay: as above; format: cell-based; details: for Minimum growth inhibiting concentration: strain resistant to the respective drug
Method: as §1, §2, §3, §6, §7

[1] = tested on: Streptococcus faecalis resistant to erythromycin; assay: Therapeutical treatment of mice infected with erythromycin-resistant Streptococcus faecalis (Example 9); format: in vivo, male ICR-JCL mice; details: only erythromycin 50 mg/kg oral, 7th day
Method: Experiments of therapeutical treatment of animals infected with an erythromycin-resistant bacterial strain were carried out using the present substance, i.e., a nitrogen-containing polysaccharide prepared by the procedures described in Example 1.
After keeping the mice under usual conditions for 6 days, the rate of survival of each mouse was observed on 7th day.

Streptococcus faecalis = assay: Minimum growth inhibiting concentration, agar plate method; format: cell-based; details: for Minimum growth inhibiting concentration: strain resistant to the respective drug
Method: as §1, §2, §3, §4, §5

[2] = tested on: streptomycin resistant strain of Klebsiella pneumoniae; assay: Therapeutical test in mice infected with streptomycin-resistant Klebsiella pneumoniae (Example 7); format: in vivo, male ICR-JCL mouse; details: streptomycin singly 100 mg/kg i.p., 6 days after administration
Method: The streptomycin resistant strain of Klebsiella pneumoniae was obtained by the procedure of Exampe 1 and 0.25 ml of a Trypto-soy bouillon (see Example 2) containing 5% of mucin and the bacterial strain was intraperitoneally inoculated to each mouse of 2 groups of male ICR-JCL mouse, the group consisting of 10 mice at the rate of 1×10^8 cells per mouse. Three hours after this inoculation, 100 mg/kg of streptomycin was intraperitoneally administered. Another group was further given 120 mg/kg of the present substance, obtained by the description in Example 6, via intraperitoneal administration. The survival rate 6 days after administration was 50% in the group where streptomycin was used singly, but it was as high as 80% in the group where the present substance was used with streptomycin.

[3] = strain resistant to the respective antibiotic (Table 2)
[4] = present substance added at 1000 μg/ml
[5] = present substance not added (Table 3)
[6] = present substance added at 100 μg/ml

SMILES | Minimum growth inhibiting concentration (MIC) (Salmonella enteritidis; original strain) [µg/mL] | Minimum growth inhibiting concentration (MIC) (Salmonella enteritidis; [3]) [µg/mL] | Minimum growth inhibiting concentration (MIC) (Escherichia coli; original strain) [µg/mL] | Minimum growth inhibiting concentration (MIC) (Escherichia coli; [3]) [µg/mL] | Minimum growth inhibiting concentration (MIC) (Staphylococcus aureus; original strain) [µg/mL] | Minimum growth inhibiting concentration (MIC) (Staphylococcus aureus; [3]) [µg/mL] | Minimum growth inhibiting concentration (Staphylococcus aureus; [4]) [µg/mL] | Minimum growth inhibiting concentration (Staphylococcus aureus; [5]) [µg/mL] | Minimum growth inhibiting concentration (MIC) (Klebsiella pneumoniae; original strain) [µg/mL] | Minimum growth inhibiting concentration (MIC) (Klebsiella pneumoniae; [3]) [µg/mL] | Minimum growth inhibiting concentration (Escherichia coli; [5]) [µg/mL] | Minimum growth inhibiting concentration (Klebsiella pneumoniae; [5]) [µg/mL] | further results
CC1(C)S[C@@H]2[C@H](NC(=O)Cc3ccccc3)C(=O)N2[C@H]1C(=O)O [PG, Penicillin G] | 6.3 | > 100 | 12.5 | > 100 | 0.025 | 12.5 | 1.6 | 12.5 | 6.3 | > 100 |  |  | 
CC[C@H]1OC(=O)[C@H](C)[C@@H](O[C@H]2C[C@@](C)(OC)[C@@H](O)[C@H](C)O2)[C@H](C)[C@@H](O[C@@H]2O[C@H](C)C[C@H](N(C)C)[C@H]2O)[C@](C)(O)C[C@@H](C)C(=O)[C@H](C)[C@@H](O)[C@]1(C)O [EM, Erythromycin] | > 100 |  | > 100 |  | 0.4 |  | 3.2 |  |  | > 100 |  |  | rate of survival [1]: 50%
CN(C)[C@@H]1C(O)=C(C(N)=O)C(=O)[C@@]2(O)C(O)=C3C(=O)c4c(O)cccc4[C@@](C)(O)[C@H]3C[C@@H]12 [TC, Tetracycline] | 1.6 | 12.5 | 3.1 | 25 | 0.8 | 25 |  | 25 | 1.6 | 25 | 25 | 25 | Minimum growth inhibiting concentration (Salmonella enteritidis; [6]): 6.3 µg/mL; Minimum growth inhibiting concentration (Salmonella enteritidis; [5]): 12.5 µg/mL; Minimum growth inhibiting concentration (Escherichia coli; [6]): 6.3 µg/mL; Minimum growth inhibiting concentration (MIC) (Streptococcus faecalis; original strain): 0.4 µg/mL; Minimum growth inhibiting concentration (MIC) (Streptococcus faecalis; [3]): 25 µg/mL; Minimum growth inhibiting concentration (Streptococcus faecalis; [6]): 6.3 µg/mL; Minimum growth inhibiting concentration (Streptococcus faecalis; [5]): 25 µg/mL; Minimum growth inhibiting concentration (Staphylococcus aureus; [6]): 3.2 µg/mL; Minimum growth inhibiting concentration (Klebsiella pneumoniae; [6]): 12.5 µg/mL
[H]/N=C(/N)N[C@H]1[C@H](O)[C@@H](O)[C@H](O[C@@H]2O[C@@H](C)[C@](O)(C=O)[C@H]2O[C@@H]2O[C@@H](CO)[C@H](O)[C@@H](O)[C@@H]2NC)[C@@H](N/C(N)=N\[H])[C@@H]1O [SM, Streptomycin] | 25 | > 100 | 3.1 | 100 | 1.6 | > 100 |  |  | 1.6 | 100 | 100 | 100 | Minimum growth inhibiting concentration (Escherichia coli; [4]): 25 µg/mL; Minimum growth inhibiting concentration (Klebsiella pneumoniae; [4]): 25 µg/mL; survival rate [2]: 50%
